PMC7025694 (Acta Orthopaedica, 2018)

Format: in vivo, pig

## CN[C@H](CC(C)C)C(=O)N[C@H]1C(=O)N[C@@H](CC(N)=O)C(=O)N[C@H]2C(=O)N[C@H]3C(=O)N[C@H](C(=O)N[C@H](C(=O)O)c4cc(O)cc(O)c4-c4cc3ccc4O)[C@H](O)c3ccc(c(Cl)c3)Oc3cc2cc(c3O[C@@H]2O[C@H](CO)[C@@H](O)[C@H](O)[C@H]2O[C@H]2C[C@](C)(N)[C@H](O)[C@H](C)O2)Oc2ccc(cc2Cl)[C@H]1O [vancomycin]
Intervertebral disc, pig, 1,000 mg i.v. over 100 min, sampling 8 h
  time to a mean MIC of 8 µg/mL: could not be reached
Plasma (unbound), pig, 1,000 mg i.v. single dose over 100 min, mean (95% CI)
  Tmax, time to Cmax: 75 (61–89) min
